pIC50: −log10 of the molar value. “And” between values parts separate entries of the source, which are not always exact repeats. Identical values can stand only once. Blank lines part the entries; values can stand above or below the molecule they belong to.
System: 349418-098-R-PDC spheroids, viability, % test/control
Experiment: Anticancer human tumor 349418-098-R-PDC patient-derived lung adenocarcinoma cell line growth inhibition [IpAb]
Settings: spheroids with HUVEC and MSC; for viability, T/C: stronger effect = lower value
From the text: Combinatorial screen of targeted agents with ipatasertib and abemaciclib in multi-cell type tumor spheroids
A high-throughput screen of multi-cell type tumor spheroids was designed to identify active combinations of targeted small molecules and ipatasertib or abemaciclib. Complex spheroids include a stromal component modeled by human endothelial cells (HUVEC) and fibroblasts modeled by human mesenchymal stem cells (MSCs). The concentration ranges selected for each drug and investigational agent were based upon clinically achievable concentrations if the clinical Cmax of the agent was known.
Compounds. The drugs and investigational agents: ipatasertib (NSC767898), abemaciclib(NSC768073), selumetinib (NSC741078), trametinib (758246), adavosertib (NSC754352), everolimus (NSC733504), sapanisertib (NSC764658), vemurafenib (NSC761431), venetoclax (NSC766270), copanlisib (NSC809693), apelisib (NSC765974), palbociblib (NSC758247), vemurafenib (NSC761431), dabrafenib (NSC764134), ravoxertinib (NSC781343), BMS-387032 (NSC767048), sotorasib (NSC818433), talazoparib (NSC767125) and afursertib (NSC778305), were obtained from the National Cancer Institute (NCI) Developmental Therapeutics Program Chemical Repository. The FDA-approved anticancer drug set is available from the NCI Developmental Therapeutics Program. […] The stock solutions were prepared in dimethyl sulfoxide (DMSO, Sigma-Aldrich, St. Louis, MO, cat. D2650) at 800-fold the tested concentration and stored at -70 degrees C prior to their use. All drugs and investigational agents were tested over a range starting from a high concentration at or near the clinical Cmax and decreasing in half-log increments. If the clinical Cmax for an agent had not been determined, the highest concentration tested was 10 microM.
NCI60 Cell Culture. NCI60 cell lines were obtained from the NCI Developmental Therapeutics Program Tumor Repository. For each lot of cells, the Repository performed Applied Biosystems AmpFLSTR Identifiler testing with PCR amplification to confirm consistency with the published Identifier STR profile for each cell line. Cells were kept in continuous culture for no more than 20 passages. The optimal seeding densities for each of the cell lines at each time point assessed were determined prior to performing the concentration response studies. Briefly, the NCI60 human tumor lines were grown as monolayers in RPMI 1640 medium supplemented with 10% FBS and 2 mmol/L L-glutamine.
An additional 9 lines were from the NCI60 cell line panel including MDA-MB-231 breast carcinoma, MDA-MB-468 breast carcinoma, MCF7 breast carcinoma, Hs578T breast carcinoma, MALME-3M melanoma, SK-MEL-2 melanoma, SK-OV-3 ovarian carcinoma, DU-145 prostate carcinoma, PC-3 prostate carcinoma, all cell lines along with major genetic alterations are listed on Table 2. Pooled donor human umbilical vein endothelial cells (HUVEC, Lonza, cat. CC-2519) and human mesenchymal stem cells (hMSC, Lonza, cat. PT-2501) were purchased from Lonza (Walkersville, MD).
PDMR cell lines were grown in complete medium (DC medium): Dulbecco's modified Eagle's medium (DMEM)/F12 supplemented with 5% fetal bovine serum (FBS), 2 mM L-glutamine, 100 U/mL penicillin and 100 µg/ml streptomycin, 0.4 µg/ml hydrocortisone, 10 ng/ml epidermal growth factor (EGF) recombinant human protein, 24 µg/mL adenine, and 0.1 mg/mL primocin. During culture from frozen stock vials, PDMR cells were cultured in the same medium containing 10 µM Y-27632 (see Table 3). The PDCs were cultured in complete DMEM/F12 media without 10 microM Y-27632 dihydrochloride for at least two passages prior to the screen. The pooled donor HUVEC and hMSC were cultured in endothelial cell growth medium 2 (PromoCell, Heidelberg, Germany, cat. C-22011) and mesenchymal stem cell growth medium 2 (PromoCell, cat. C-28009), respectively. For all experiments, HUVEC and hMSC were used at passages </=5.
[…]

[1] = curve of first compound, second compound 0.1 µM
[2] = curve of first compound, second compound 0.316 µM
[3] = curve of first compound, second compound 1 µM
[4] = curve of first compound, second compound 3.16 µM
[5] = curve of first compound, second compound 10 µM
[6] = second compound 0.1 µM, first compound 0.0316 µM
[7] = second compound 0.1 µM, first compound 0.1 µM
[8] = second compound 0.316 µM, first compound 0.0316 µM
[9] = second compound 0.316 µM, first compound 0.1 µM
[10] = second compound 1 µM, first compound 0.0316 µM
[11] = second compound 1 µM, first compound 0.1 µM
[12] = second compound 3.16 µM, first compound 0.0316 µM
[13] = second compound 3.16 µM, first compound 0.1 µM
[14] = second compound 10 µM, first compound 0.0316 µM
[15] = second compound 10 µM, first compound 0.1 µM
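Note: spheroids exposed to compounds for 7 days.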

pIC50 (curve of compound): < 7.00
SMILES: Cn1ncnc1[C@H]1c2n[nH]c(=O)c3cc(F)cc(c23)N[C@@H]1c1ccc(F)cc1
viability, T/C (compound 0.000316 µM): 96.5% and 98.7%
viability, T/C (compound 0.001 µM): 100% and 99.5%
viability, T/C (compound 0.00316 µM): 94.5% and 104%
viability, T/C (compound 0.01 µM): 94.8% and 100%
viability, T/C (compound 0.0316 µM): 83.4% and 81.5%
viability, T/C (compound 0.1 µM): 75.5% and 78.4%

pIC50 (curve of compound): 5.73 and 5.96
SMILES: CCCS(=O)(=O)Nc1ccc(F)c(C(=O)c2c[nH]c3ncc(-c4ccc(Cl)cc4)cc23)c1F
viability, T/C (compound 0.0316 µM): 69.3% and 61.6%
viability, T/C (compound 0.1 µM): 52% and 49.9%
viability, T/C (compound 0.316 µM): 51.7% and 55.5%
viability, T/C (compound 1 µM): 49.4% and 45.2%
viability, T/C (compound 3.16 µM): 50.4% and 46.2%
viability, T/C (compound 10 µM): 22.7% and 19.6%

pIC50 (curve of compound): 8.76 and 8.85
SMILES: CC(C)n1nc(-c2ccc3oc(N)nc3c2)c2c(N)ncnc21
viability, T/C (compound 0.000316 µM): 93.8% and 89.8%
viability, T/C (compound 0.001 µM): 72.9% and 60.3%
viability, T/C (compound 0.00316 µM): 24.7% and 26.2%
viability, T/C (compound 0.01 µM): 11% and 10.4%
viability, T/C (compound 0.0316 µM): 8.02% and 7.35%
viability, T/C (compound 0.1 µM): 7.57% and 6.78%

More lines, now with the values behind:

SMILES: Cn1ncnc1[C@H]1c2n[nH]c(=O)c3cc(F)cc(c23)N[C@@H]1c1ccc(F)cc1 + CC(C)NCC(C(=O)N1CCN(c2ncnc3c2C(C)CC3O)CC1)c1ccc(Cl)cc1
pIC50 [1]: < 7.00
pIC50 [2]: 9.21
pIC50 [3]: > 9.50
pIC50 [4]: > 9.50
pIC50 [5]: > 9.50
viability, T/C (second compound 0.1 µM, first compound 0.000316 µM): 82.5%
viability, T/C (second compound 0.1 µM, first compound 0.001 µM): 80.5%
viability, T/C (second compound 0.1 µM, first compound 0.00316 µM): 77.3%
viability, T/C (second compound 0.1 µM, first compound 0.01 µM): 70%
viability, T/C [6]: 68.7%
viability, T/C [7]: 76.7%
viability, T/C (second compound 0.316 µM, first compound 0.000316 µM): 52.6%
viability, T/C (second compound 0.316 µM, first compound 0.001 µM): 48.4%
viability, T/C (second compound 0.316 µM, first compound 0.00316 µM): 42.8%
viability, T/C (second compound 0.316 µM, first compound 0.01 µM): 46.8%
viability, T/C [8]: 41.7%
viability, T/C [9]: 37%
viability, T/C (second compound 1 µM, first compound 0.000316 µM): 26.4%
viability, T/C (second compound 1 µM, first compound 0.001 µM): 24.1%
viability, T/C (second compound 1 µM, first compound 0.00316 µM): 18.9%
viability, T/C (second compound 1 µM, first compound 0.01 µM): 16.7%
viability, T/C [10]: 17.2%
viability, T/C [11]: 17.1%
viability, T/C (second compound 3.16 µM, first compound 0.000316 µM): 13.8%
viability, T/C (second compound 3.16 µM, first compound 0.001 µM): 15.8%
viability, T/C (second compound 3.16 µM, first compound 0.00316 µM): 11.1%
viability, T/C (second compound 3.16 µM, first compound 0.01 µM): 10.2%
viability, T/C [12]: 9.16%
viability, T/C [13]: 7.75%
viability, T/C (second compound 10 µM, first compound 0.000316 µM): 9.03%
viability, T/C (second compound 10 µM, first compound 0.001 µM): 7.63%
viability, T/C (second compound 10 µM, first compound 0.00316 µM): 6.62%
viability, T/C (second compound 10 µM, first compound 0.01 µM): 6.38%
viability, T/C [14]: 5.72%
viability, T/C [15]: 6.34%

SMILES: Cn1ncc(Cl)c1-c1cc(C(=O)NC(CN)Cc2cccc(F)c2)sc1Cl (stereo unspecified) + CC(C)NCC(C(=O)N1CCN(c2ncnc3c2C(C)CC3O)CC1)c1ccc(Cl)cc1
pIC50 [1]: 7.04
pIC50 [2]: > 7.50
pIC50 [3]: > 7.50
pIC50 [4]: > 7.50
pIC50 [5]: > 7.50
viability, T/C [6]: 79.5%
viability, T/C [7]: 45.1%
viability, T/C (second compound 0.1 µM, first compound 0.316 µM): 29.4%
viability, T/C (second compound 0.1 µM, first compound 1 µM): 12.3%
viability, T/C (second compound 0.1 µM, first compound 3.16 µM): 6.88%
viability, T/C (second compound 0.1 µM, first compound 10 µM): 0.08%
viability, T/C [8]: 49.7%
viability, T/C [9]: 31.8%
viability, T/C (second compound 0.316 µM, first compound 0.316 µM): 25.3%
viability, T/C (second compound 0.316 µM, first compound 1 µM): 12.1%
viability, T/C (second compound 0.316 µM, first compound 3.16 µM): 7.48%
viability, T/C (second compound 0.316 µM, first compound 10 µM): 0.08%
viability, T/C [10]: 23.2%
viability, T/C [11]: 22.2%
viability, T/C (second compound 1 µM, first compound 0.316 µM): 15.9%
viability, T/C (second compound 1 µM, first compound 1 µM): 10.1%
viability, T/C (second compound 1 µM, first compound 3.16 µM): 6.54%
viability, T/C (second compound 1 µM, first compound 10 µM): 0.08%
viability, T/C [12]: 15.3%
viability, T/C [13]: 12.2%
viability, T/C (second compound 3.16 µM, first compound 0.316 µM): 10.8%
viability, T/C (second compound 3.16 µM, first compound 1 µM): 8.53%
viability, T/C (second compound 3.16 µM, first compound 3.16 µM): 6.62%
viability, T/C (second compound 3.16 µM, first compound 10 µM): 0.19%
viability, T/C [14]: 7.77%
viability, T/C [15]: 8.14%
viability, T/C (second compound 10 µM, first compound 0.316 µM): 7.56%
viability, T/C (second compound 10 µM, first compound 1 µM): 6.63%
viability, T/C (second compound 10 µM, first compound 3.16 µM): 5.87%
viability, T/C (second compound 10 µM, first compound 10 µM): 0.18%

— PubChem BioAssay AID2060340 (Molecular Pharmacology Branch, DTP, NCI, 2025)
